| SMILES | melting point |
| --- | --- |
| COc1ccccc1-c1ccc(CC(=O)Nc2n[nH]c3c2CCC3)cc1 [Example 1.4] | 150 °C |
| O=C(Cc1ccc(-c2ccccc2F)cc1)Nc1n[nH]c2c1CCC2 [Example 1.3] | 179 to 181 °C |
| O=C(Cc1ccc(-c2ccc(F)cc2)cc1)Nc1n[nH]c2c1CCC2 [Example 1.2] | 161 to 163 °C |
| O=C(Cc1ccc(-c2cccc(F)c2)cc1)Nc1n[nH]c2c1CCC2 [Example 1.0, 2-(3′-Fluoro-biphenyl-4-yl)-N-(1,4,5,6-tetrahydro-cyclopentapyrazol-3-yl)-acetamide] | 180 to 181 °C |

Now from value to compound:

| melting point | SMILES |
| --- | --- |
| 110 to 114 °C | COc1cccc(-c2ccc(CC(=O)Nc3n[nH]c4c3CCC4)cc2)c1 [Example 1.5] |
| 168 to 172 °C | COc1ccc(-c2ccc(CC(=O)Nc3n[nH]c4c3CCC4)cc2)cc1 [Example 1.6] |
| 150 °C | CC(=O)c1cccc(-c2ccc(CC(=O)Nc3n[nH]c4c3CCC4)cc2)c1 [Example 1.7] |
| 112 to 114 °C | CC(=O)c1ccc(-c2ccc(CC(=O)Nc3n[nH]c4c3CCC4)cc2)cc1 [Example 1.8] |
